Experimental data: patent publication US20240252463A1, “METHODS OF TREATING FIBROTIC PATHOLOGIES” (Mayo Foundation for Medical Education and Research, priority 2018, published 2024)

What was measured:
[1] = tested on: human dermal fibroblasts; assay: Profibrotic gene expression in human dermal fibroblasts +/- TGFβ; type: cell-based; settings: 24 hours +/− 2 ng/mL TGFβ
Protocol: Human dermal fibroblasts treated for 24 hours+/−2 ng/mL TGFβ and D1 agonists: DHX and A68930 prior to RNA isolation. N=2. For all other in vitro experiments, cells were treated as indicated prior to RNA isolation using RNeasy Plus Mini Kit (Qiagen) according to manufacturer's instructions. Isolated RNA (250 ng) was then used to synthesize cDNA using SuperScript VILO (Invitrogen). Quantitative PCR was performed using FastStart Essential DNA Green Master (Roche) and analyzed using a LightCycler 96 (Roche). Data are expressed as a fold change by ΔΔCt relative to GAPDH. For in vivo experiments, tissue was immediately frozen, and stored at −80° C. RNA isolation, cDNA synthesis, and qPCR analysis were performed as above.

[2] = tested on: YAP/TAZ; assay: YAP/TAZ nuclear localization in IMR-90 and other mesenchymal cells (cardiac, dermal fibroblasts, hepatic stellate cells); type: cell-based, human
Protocol: FIGS. 2A-2E Dopamine Receptor D1 agonism blocks YAP/TAZ nuclear localization. 2a. Selective agonists of dopamine receptor D1 with varying efficacy inhibit YAP/TAZ nuclear localization; this effect can be overcome by treatment with a DRD1 receptor antagonist (SCH 39166, 3 μM), (Dihydrexidine, 10 μM). IMR-90 cells treated 2 hours prior to fixation. N=4 (****p<0.0001 vs. 0.1% DMSO vehicle control). Scale bar represents 100 μm. 2b. Consistent with DRD1 expression, DHX inhibits YAP/TAZ only in fibroblasts (IPF-FBs) but not in epithelial (NHEpCs) or endothelial (NHMVECs) cells. N=4 (****p<0.0001 vs. 0.1% DMSO vehicle control) 2c. YAP/TAZ localization is induced through multiple ligands which stimulate receptors coupled to Galphαi/q/12, endothelin 1 (ET-1: 100 nM), lysophosphatidic acid (LPA: 10 μM), and serotonin (5-HT: 1 μM). In each case DHX treatment (10 μM) can reverse this effect on YAP/TAZ. IMR-90 cells plated densely onto plastic cell culture plates for 24 hours in media containing 0.1% FBS, treated for 2 hours prior to fixation. N=4 (****p<0.0001 vs. 0.1% DMSO vehicle control), (++++p<0.0001 vs. the respective stimulated agonist ET-1, LPA, or 5-HT). Scale bar represents 100 μm. 2d. cAMP measured in IPF patient-derived fibroblasts treated for 20 minutes with DHX (10 μM)+/−SCH 39166 (3 μM). N=3 (**p<0.01 vs. 0.1% DMSO vehicle control). 2e. Phosphorylation of YAP by Rho-kinase inhibitor Y27632 (20 μM), direct cAMP stimulator Forskolin (10 μM), or DHX (10 μM). IMR-90 cells cultured for 24 hours in media containing 0.1% FBS, treated 2 hours prior to fixation. N=3 (***p<0.001 vs. 0.1% DMSO vehicle control).
FIGS. 6A-6C DHX inhibits YAP/TAZ localization in fibroblasts from multiple tissues. 6a. Mesenchymal cells derived from lung (IMR-90 and IPF-FBs) hepatic stellate cells (HSC), human adult cardiac fibroblasts, (HACF) and human dermal fibroblasts (HDF) were plated densely (Confluent) or sparsely (Control and all remaining conditions) onto plastic cell culture plates for 24 hours in media containing 0.1% FBS, treated for 2 hours with Rho kinase inhibitor Y27632, adenylate cyclase activator forskolin and DHX. N=4, Cells that were positive for nuclear YAP/TAZ were quantified by automated image analysis. 6b. Time course for DHX inhibition of YAP/TAZ nuclear localization. IMR-90 cells, N=3 (***p<0.001 vs. 0.1% DMSO vehicle control). 6c. […] N=3.
ImmunofluorescenceMicroscopy: Cells were plated into 96 well plates (Corning 3603) in their specific growth media and allowed to attach (8 hours). Media was then exchanged for the indicated conditions for each experiment. Cells were fixed in 3.7% formalin (Sigma-Aldrich), permeabilized in 0.25% Triton X-100 (Sigma-Aldrich) and then blocked with 1% BSA for 1 h. Cells or tissue sections were incubated overnight with mouse monoclonal antibody against αSMA (Sigma-Aldrich F3777), and/or a rabbit monoclonal antibody against YAP/TAZ (Cell Signaling D24E4) diluted 1:200 in PBS with 1% BSA. Cells were then washed and exposed to flourescence-conjugated secondary antibodies (Invitrogen) diluted 1:1000 and DAPI (Thermo Fisher Scientific). Images were taken with a Cytation5 (BioTek) microscope. For scoring αSMA positive cells (FIG. 3b), an observer blinded to the treatment conditions counted αSMA-positive cells using a visual threshold for bright fibrous staining; a minimum of 200 cells was counted for each condition. YAP/TAZ localization was quantified (FIG. 2, 6, 8) using Gen5 (Biotek) software. Images were taken at 4× magnification of both DAPI and YAP/TAZ staining. […] Quantification of double positive (YAP/TAZ and αSMA) cells from lung tissue sections (FIG. 4d) was performed similarly; however separate thresholds were established for both YAP/TAZ and αSMA. A minimum of 4000 cells was quantified for each mouse.

## Oc1cc2c(cc1O)[C@H]1c3ccccc3CN[C@@H]1CC2 (racemic) [Dihydrexidine, dihydrexidine]
[1]
  profibrotic gene expression in human dermal fibroblasts: blocks profibrotic gene expression
[2]; FIG. 6c
  potency of inhibition of YAP/TAZ nuclear localization, normal lung fibroblasts vs IPF-derived: equally potent
[2]; cardiac and dermal fibroblasts and hepatic stellate cells (FIG. 6)
  YAP/TAZ nuclear localization across a panel of mesenchymal cell types: effective at inhibiting YAP/TAZ nuclear localization
[2]; confluent IMR-90, DHX 10 μM, 2 hours (FIG. 2c)
  YAP/TAZ nuclear localization induced by endothelin-1, lysophosphatidic acid and serotonin: blocked nuclear localization of YAP/TAZ
[2]; fibroblasts on stiff matrix (plastic), IMR-90 cells treated 2 hours (FIG. 2a)
  YAP/TAZ nuclear localization: reduced nuclear localization of YAP/TAZ
